Here are results for one molecule from publication PMC8429736, “Pharmacological characterization of mutant huntingtin aggregate-directed PET imaging tracer candidates” (Scientific Reports, 2021).

Molecules are shown by their SMILES. Read-outs that look alike come from different tables or passages of the source. A value given as a limit tells only on which side of the number the result lay.

For orientation: IC50 means the concentration at which inhibition is half-maximal. A word on the Kd: it is the free concentration of one partner at which half of the binding sites on the other are occupied at equilibrium, for simple one-to-one binding. Lower therefore signals a tighter complex.

Data set [1] concerns the target T1, Exon1-Q46 aggregates (Homo sapiens, UniProt P42858, INS38QQQQQQQQQQQQQQQQQQQQQQQQQ).
T1 construct: MBP-HTT(1-89)Q46-His(6x); MBP (N, cleaved yes); made in house; host or cells: E. coli BL21 (DE3)
Description: RBA competition binding against tritiated 3, Exon1-Q46 aggregates. As to the method:
For the competition assay format, Q46 or Exon1-Q46 aggregates at 1 µM (sample volume 150 µL) were pre-incubated in a 96-well round bottom plate (Corning, #3365) for 20 min with test compounds at room temperature (assay buffer 50 mM Tris–HCl pH 8.0, 150 mM NaCl). […] Radioligand 3 at 0.3 nM was added and incubated for 1 h at 37 °C.
Samples were then transferred onto a 96-well GF/B filter plate (Perkin Elmer, #6005177) using a Filtermate Harvester, aspirated by vacuum and wells washed twice with 200 µL PBS. After drying the filter plates for 1 h at 55 °C the back of the plate was sealed with aluminum cover and 30 µL of scintillation fluid (Perkin Elmer, #6013641) per well was added. The tops of the plates were sealed, and the plates were incubated for 15 min in the dark and counted in a TopCount or MicroBeta2 reader (both Perkin Elmer).
Raw sample data collected as counts per minute (cpm) were normalized towards assay controls: 0% inhibition = radioligand + protein + vehicle, 100% inhibition = radioligand + protein + 1 µM unlabeled ligand. A 4-parameter […] fit was applied to generate IC50 values.

For data set [2], the target named is zQ175 brain homogenates. Put plainly: Whole brain homogenate RBA saturation binding, HOM zQ175. More on the design: species or system mouse. Conditions: HOM zQ175 12 months whole brain homogenate. The method, then:
(§1) For RBA in vitro binding assays, brain tissue was sliced (50 µm), weighed and homogenized in PBS (Gibco, 14190-94), 0.1% BSA with a glass pestle (10 strokes) at a concentration of 12–15 mg wet tissue per mL buffer. The crude homogenate concentration was then adjusted to 10 mg/mL (wet tissue) and stored as single-use aliquots at -80 °C.
(§2) For saturation binding experiments, aggregate lysate preparation and final concentration in the assay, assay buffer, incubation times and plate processing were identical to the competition format. Radioligand was titrated up to 100 nM. Raw cpm were converted into nM using a calibration line of total added radioligand without washing and filtering (spiked onto the filter plate and dried) (e.g., X) and normalized to the concentration of protein (e.g., Y) to finally obtain […] (e.g., X/Y). Specific binding (SB) was calculated as full binding minus full competition (in the presence of excess unlabeled ligand) and a hyperbolic mono-phasic fit was applied using GraphPad Prism to determine Kd and Bmax.

The subject of data set [3] is mHTT aggregates in zQ175 brain homogenates. Description: RAFTA with zQ175 brain homogenates. In kind it is binding, mouse. The method, then:
For RAFTA and MSD assays, mouse brains were transferred to lysis tubes and individually homogenized 1:3 (w/v) in brain lysis buffer (10 mM Tris pH 7.4, 800 mM NaCl, 1 mM EDTA, 1 × Protease inhibitor, 10% Sucrose, 0.5% Triton X-100, Benzonase (1:1000)) using a pre-cooled MP FastPrep homogenizer (3 × 30 s, 6.0 m/sec). Crude homogenates were transferred to LoBind reaction tubes (Eppendorf) and centrifuged at 15,700×g for 10 min at 4 °C. The supernatant was collected, and the pellet fraction was resuspended in brain lysis buffer. Generally, a minimum of three whole brains were lysed and fractions were pooled after homogenization to reduce assay variability due to inter-animal variability.
The total protein concentration of samples was determined by BCA assay (ThermoFisher Scientific, #23227), according to standard procedures and protein concentrations were adjusted to 5–10 mg/mL in brain lysis buffer. […]
For RAFTA analysis, frozen mouse brain homogenates were thawed on the day of the experiment and diluted with assay buffer (50 mM Tris pH 8.0; 150 mM NaCl) to a concentration of 500 µg/mL total protein. […] In experiments where non-specific binding (NSB) was determined, the incubation medium contained 5 µM of non-labeled (cold) CHDI-180, which was added prior to the addition of radioligand and incubated for 20 min at room temperature. […]

In data set [4] the test system is beta amyloid/tau aggregates in post-mortem AD patient brain homogenates. Description: ADbh RBA competition format. In kind it is binding, human. Conditions: radioligand 4; compound 1 µM. The method, then: as §1
RBA experiments using Alzheimer’s disease brain homogenates (ADbh RBA) followed the same assay principle as the RBA with recombinant HTT protein, using 0.68 mg/mL homogenate (100 µg per well with 150 µL assay volume) in assay buffer PBS, 0.01% Pluronic F127 (Sigma. P2443) and 1% DMSO after compound addition. […] Incubation at room temperature was conducted for 20 min after compound addition and for 5 h after radioligand addition. For the competition format, raw cpm were normalized towards assay controls as before, to obtain inhibition between 0 and 100%. For saturation binding, raw cpm were converted into nM as before, using a calibration line of total added radioligand, and normalized to mg of added homogenate to finally obtain pmol/mg.

In data set [5] the test system is R6/2 brain homogenates. Put plainly: RBA with R6/2 brain homogenates. In kind it is binding, mouse. As to conditions: data not shown. As to the method: as §1, §2
On the set-up of data set [6]: method as in PMID 34351166, PMID 32662649. As to conditions: cited from earlier work.

T1 sequence (P42858 with tags, fused parts or gaps with the stated changes): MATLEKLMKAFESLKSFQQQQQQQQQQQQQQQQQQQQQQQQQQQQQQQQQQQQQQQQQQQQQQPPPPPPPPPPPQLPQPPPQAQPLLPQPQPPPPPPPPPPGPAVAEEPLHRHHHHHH

`COc1ccc(COc2ccc3oc(-c4ccc(=O)n(C)n4)nc3c2)nc1` [CHDI-180]: the IC50 amounted to 1.3 ± 0.7 nM in data set [1] (0.3 nM tritiated 3 as radioligand, 1 µM aggregates, mean ± SD, read-out: IC50 Exon1-Q46) and 1.4 nM in data set [1] (against tritiated 3, representative single experiment (Fig. 2B), read-out: IC50). Moreover, the “Hill Slope” value in data set [1] (against tritiated 3, representative single experiment (Fig. 2B)) was 0.89. This molecule returned a dissociation constant (Kd) in data set [2] of 2.4 nM. Moreover, in data set [2] (per mg tissue), the “RBA Bmax” value amounted to 34.0 fmol/mg. Besides, the “signal in pelleted material vs age-matched WT mice” value in data set [3] (3 nM radioligand, cortices, striata or hippocampi of 9-month-old HET zQ175) is listed as “> tenfold”. Further, the “binding in brain homogenates with age” value in data set [3] (3-, 6-, 9-, 12-month-old HOM zQ175) is reported as “age-dependent increase”. The “inhibition at 1 µM” value in data set [4] is ~ 50%. The binding signal result in data set [5] was “no appropriate binding signal”. Further, the “plasma, microsomal, and hepatocyte stability” value in data set [6] is “acceptable”.
